Data: patent US20110318272A1, “PESTICIDAL MIXTURES GIVING S[…]” (priority 2010, published 2011)
Entries after “also recorded” stand apart in the source; their conditions may differ. Where two headings read alike, the source gives them in different places.

Tests used:
Tetranychus urticae = assay: Leaf disc track-sprayer bioassay against red spider mite; type: in vivo; settings: for Concentration effect ca LD25 3DAA / Concentration effect ca LD50 3DAA: T. urticae; for activity against T. urticae when applied alone: range-finding assay
Method: Test arenas consisted of excised leaf discs of the host plant Phaseolus vulgaris infested with the target organism, Tetranychus urticae. A track sprayer was used to spray the test solutions at an application volume of 200 L/ha. Assessment of mortality (survival), any other sub lethal effects and phytotoxicity were carried out at 24 hours and 72 hours post application (3DAA).

Myzus persicae = settings: for Concentration effect ca LD25 3DAA: M. persicae; for pesticidal activity against M. persicae, product alone in mixture study: alone at rate taken as ca. LD25 (BUGOIL 10 mL/L, imidacloprid 0.1, indoxacarb 100, spinosad 1 g (a.i.)/ha); for aphicidal activity against M. persicae when applied alone: range-finding assay
Method: Test arenas consisted of excised leaf discs of the host plant infested with the target organism.
Test arenas consisted of excised leaf discs of the host plant Brassica rapa chinensis infested with the target organism, Myzus persicae. A track sprayer was used to spray the test solutions at an application volume of 200 L/ha. Assessment of mortality (survival), any other sub lethal effects and phytotoxicity were carried out at 24 hours and 72 hours post application (3DAA).

[1] = tested on: sucking insect pests (whitefly, leafhoppers and aphids); assay: Field study, sucking insect pests on eggplant; type: in vivo; settings: abamectin as AGRI-MEK 1.8 EC, mixtures at reduced rates, sucking insect and lepidopteran pests
Method: (§1) For the field experiments described in Examples 14-16, the numbers of target organisms on host plants were assessed before treatment and after treatment.
(§2) Field studies as described below were carried out to determine the efficacy of BUGOIL®, lambda cyhalothrin, imidacloprid, and abamectin, alone and in mixtures with BUGOIL®, for control of the whitefly Bemisia tabaci, the leafhopper Empoasca biggutula, the aphid Aphis gosspyii, the shoot/fruit borer Leucinodes orbonalis and the cutworm Spodoptera litura on the eggplant cultivar “Casino” (Solanum melongena cv Casino). In the following studies, the dose (N) is the label dose for each product, expressed in concentration (grams active ingredient) per liter of spray mixture (a.i.)/l).

Empoasca biggutula = assay: Field study, leafhopper on eggplant; type: in vivo
Method: as §1, §2
(§3) Imidacloprid is formulated as CLIMAX® (CLIMAX® 200 SL, Bayer CropScience, Inc., Batch No. 81001025, Production Date Feb. 22, 2005, FPA Reg. No. 284-240-0761 where the dose prior to dilution=N=label dose=0.15 g (a.i.)/l.
(§4) Abamectin is formulated as AGRI-MEK® (AGRI-MEK® 1.8 EC, Syngenta Phillipines, Inc., FPA Reg. No. 011-234-0791), where the dose prior to dilution=N=label dose=0.018 g (a.i.)/l.

Spodoptera litura = assay: Field study, cutworm on eggplant; type: in vivo; settings: 7 DAA
Method: as §1, §2
Lambda cyhalothrin is formulated as Karate® (KARATE® with Zeon Technology, Syngenta Phillipines, Inc., Batch No. JAK8,18179, Production Date Nov. 11, 2008, Phillipines Department of Agriculture, Fertilizer and Pesticides Authority (FPA) Reg. No. 011-204-0396), where the dose prior to dilution=N=label dose=0.8 g (a.i.)/l (rated adapted to lepidopterian and leafhopper pests).
as §3, §4

Bemisia tabaci = assay: Field study, adult whitefly on eggplant; type: in vivo; settings: over a 14 day test period, product alone
Method: as §1, §2, §3

Trialeurodes sp. = assay: Field study, adult whitefly on zucchini; type: in vivo; settings: FIG. 12, imidacloprid alone at N/2 dilution
Method: as §1
Field studies as described below were carried out to determine the efficacy of BUGOIL® alone, lambda cyhalothrin alone, imidacloprid alone, abamectin alone, and mixtures of BUGOIL® with lambda cyhalothrin, imidacloprid, or abamectin, for control of adult whiteflies of different whitefly species, on zucchini and cucumber. In the following studies, the dose (N) is the label dose for each product, expressed in concentration (grams active ingredient) per liter of spray mixture (a.i.)/1).

[2] = 72 hours, *not necessarily at the LD25 level, little or no response to the dose range
[3] = 72 hours, *not necessarily at the LD50 level, little or no response to the dose range
[4] = alone at recommended application rate (N)

Row | Compound | Concentration effect ca LD25 3DAA (Tetranychus urticae; 72 hours after application) [g a.i./ha] | Concentration effect ca LD50 3DAA (Tetranychus urticae; 72 hours after application) [g a.i./ha] | activity against T. urticae when applied alone (Tetranychus urticae; 72 hours) | Concentration effect ca LD25 3DAA (Myzus persicae; [2]) [g a.i./ha] | pesticidal activity against M. persicae, product alone in mixture study (Myzus persicae; 72 hours) | aphicidal activity against M. persicae when applied alone (Myzus persicae; 72 hours) | Concentration effect ca LD25 3DAA (Myzus persicae; 72 hours after application) [g a.i./ha] | Concentration effect ca LD25 3DAA (Tetranychus urticae; [2]) [g a.i./ha] | Concentration effect ca LD50 3DAA (Tetranychus urticae; [3]) [g a.i./ha] | control of cutworm, S litura (Spodoptera litura; [4]) | also measured
1 | Spinosad | ~10 | ~50 | a dose response to spinosad was observed | ~10 | no measurable pesticidal activity | variable aphicidal activity |  |  |  |  | Observed mean % mortality of T urticae (Tetranychus urticae; 10 g spinosad/L alone): 8%
2 | Abamectin | ~0.025 | ~0.040 | active |  |  | active | ~5 |  |  |  | Observed mean % mortality of T urticae (Tetranychus urticae; 0.25 g abamectin/L alone): 10%; Concentration effect ca LD50 3DAA (Tetranychus urticae; 72 hours after application, listed as Abamectin (Vertan)): ~0.04 g a.i./ha; control of eggplant pests [1]: good effects; control of leafhopper E. biggutula (Empoasca biggutula; 3 days after application 1, BUGOIL alone at 5 mL/L): 78%; control of leafhopper E. biggutula (Empoasca biggutula; 3 days after application 2, BUGOIL alone at 5 mL/L): 66%; control of leafhopper E. biggutula (Empoasca biggutula; 3 days after application 3, BUGOIL alone at 5 mL/L): 49%; control of leafhopper E biggutula (Empoasca biggutula; single application, 3 days after application): around 80%; control of cutworm, S litura (Spodoptera litura; abamectin alone): 70%; mortality rate (Myzus persicae; applied as VERTAN at LD25 (5 g (a.i.)/ha) or above, 72 hours): ~100%
3 | COC(=O)N(C(=O)N1CO[C@@]2(C(=O)OC)Cc3cc(Cl)ccc3C2=N1)c1ccc(OC(F)(F)F)cc1 [indoxacarb, methyl (4aS)-7-chloro-2,5-dihydro-2-[[(methoxycarbonyl)[4-(trifluoromethoxy)phenyl]amino]carbonyl] indeno[1,2-e][1,3,4]oxadiazine-4a(3H)-carboxylate] |  |  | minimal activity; also recorded: not shown to be active | ~100 | did not have measurable pesticidal activity | little aphicidal activity |  | ~100 | ~400 |  | 
4 | CC1(C)[C@H](C(=O)O[C@H](C#N)c2cccc(Oc3ccccc3)c2)[C@@H]1/C=C(\Cl)C(F)(F)F (racemic) [lambda-cyhalothrin, Lambda-cyhalothrin] | ~0.05 | ~0.1 | active |  |  | high aphicidal activity | ~0.01 |  |  | around 60% | pesticidal activity against T. urticae in mixture study (Tetranychus urticae; FIG. 4B, BUGOIL at ca. LD25 (5 mL/L), lambda-cyhalothrin at ca. LD25 (0.05 g (a.i.)/ha), mixtures Treatments 3, 4, 5, 7, 8, 72 hours): showed pesticidal activity
5 | O=[N+]([O-])NC1=NCCN1Cc1ccc(Cl)nc1 [imidacloprid, (2E)-1-[(6-chloro-3-pyridinyl)methyl]-N-nitro-2-imidazolidinimine] |  |  | minimal activity |  |  | active | ~0.1 | ~100 | ~400 | around 60% | control of adult whitefly, B. tabaci (Bemisia tabaci): ≤ 50%; control of leafhoppers (Empoasca biggutula; 1 HAA, imidacloprid alone at half the normal rate (½ N)): 37%; mortality rates (Myzus persicae; range finder assay, concentrations of 1 g a.i./ha and above): greater than 90%; control of adult whiteflies (Trialeurodes sp.): 30-40%
